The values below come from ChEMBL document CHEMBL3259787, “Discovery of two aminoglycoside antibiotics as inhibitors targeting the menin-mixed lineage leukaemia interface” (Bioorg Med Chem Lett, 2014).

The structures appear in SMILES notation. Active and inactive are the calls of the source. No cut-off for these calls is given here.

Test [1] can be described thus: Inhibition of N-terminal FITC-labeled MBM1 interaction to menin (unknown origin) after 1 hr by fluorescence polarization assay. More on the design: species or system Homo sapiens. (In general: Polarisation of emitted light reports the rotation of a fluorescent probe.)
Test [2] addresses T1, Menin (Homo sapiens) (UniProt O00255).
T1 sequence (whole entry): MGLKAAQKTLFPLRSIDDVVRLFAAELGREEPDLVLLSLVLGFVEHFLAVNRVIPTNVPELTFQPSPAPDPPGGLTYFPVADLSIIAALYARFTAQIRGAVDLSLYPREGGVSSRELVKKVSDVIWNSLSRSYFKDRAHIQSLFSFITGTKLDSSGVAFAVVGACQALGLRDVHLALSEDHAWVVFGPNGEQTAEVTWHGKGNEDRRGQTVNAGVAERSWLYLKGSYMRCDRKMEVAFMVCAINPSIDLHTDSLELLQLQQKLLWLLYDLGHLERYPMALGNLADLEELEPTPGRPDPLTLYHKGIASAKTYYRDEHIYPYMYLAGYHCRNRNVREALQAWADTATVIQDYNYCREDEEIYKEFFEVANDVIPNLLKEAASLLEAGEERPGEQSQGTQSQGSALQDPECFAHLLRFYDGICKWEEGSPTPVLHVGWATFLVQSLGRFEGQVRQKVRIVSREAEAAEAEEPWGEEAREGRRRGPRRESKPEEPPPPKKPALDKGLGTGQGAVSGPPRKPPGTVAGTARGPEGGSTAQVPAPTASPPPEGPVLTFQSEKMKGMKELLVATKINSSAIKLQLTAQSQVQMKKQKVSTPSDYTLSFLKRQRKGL
As to the kind of experiment: Binding affinity to menin (unknown origin) assessed as thermal stability at 50 uM by differential scanning fluorimetry (reference value: 40.46 degC). A general note: In DSF a fluorescence change marks the thermal transition of the protein.

For test [3], the target named is T1, Menin (Homo sapiens). As to the kind of experiment: Binding affinity to menin (unknown origin) assessed as thermal stability at 200 uM by differential scanning fluorimetry (reference value: 40.46 degC).
The target in test [4] is T1, Menin (Homo sapiens). As to the kind of experiment: Binding affinity to menin (unknown origin) assessed as thermal stability at 400 uM by differential scanning fluorimetry (reference value: 40.46 degC).
Test [5] has as its target T1, Menin (Homo sapiens). The experiment in a line: (§1) Binding affinity to menin (unknown origin) by isothermal titration calorimetry analysis. On the technique in general: ITC needs no label: the signal is the heat of the interaction.
Test [6] has as its target T2, Menin (Homo sapiens, UniProt O00255).
T2 sequence (O00255 whole entry): T1 sequence (whole entry)
Described as §1.

One may read the Ki as a measure of affinity in units of concentration, obtained from inhibition or displacement. Low readings indicate higher affinity, high ones lower affinity. In turn, `NC[C@H]1O[C@H](O[C@H]2[C@H](O)[C@@H](O[C@H]3O[C@H](CO)[C@@H](O)[C@H](N)[C@H]3O)[C@H](N)C[C@@H]2N)[C@H](N)C[C@@H]1O` [TOBRAMYCIN] came in with a Ki in test [1] of 59.9 µM. The Tm in test [2] was 41.4 °C; in test [3], 42.6 °C; in test [4], 43.4 °C. Besides, the result in test [5] was inactive.

What is called Kd is the constant that tells how readily two partners part at equilibrium. Read a high Kd as lower affinity. Consider `NC[C@@H]1O[C@H](O[C@H]2[C@@H](O)[C@H](O[C@@H]3[C@@H](O)[C@H](N)C[C@H](N)[C@H]3O[C@H]3O[C@H](CN)[C@@H](O)[C@H](O)[C@H]3N)O[C@@H]2CO)[C@H](N)[C@@H](O)[C@@H]1O` [FRAMYCETIN], for which, in test [1], the inhibitory constant (Ki) is 18.8 µM. In addition, the values for the Tm in test [2], in test [3] and in test [4] were 42.5 °C, 43.8 °C and 45.2 °C, respectively. In test [6], this compound showed a Kd of 15.6 µM.
